Laboratory results taken from patent publication US12331068B2, “Compositions and methods for inhibiting CD73” (Peloton Therapeutics, Inc., priority 2018, dated 2025).
Values belong to the molecule of their own block, whether it stands above or below them.

Columns and labels:
Human CD73 = target: T1, Human CD73 (Homo sapiens, UniProt P21589); assay: CD73 Enzyme Assay (EnzChek PNP/MESG kinetic readout of AMP hydrolysis); type: biochemical; conditions: 0.25 nM hCD73, 25 μM AMP; read-out: CD73 Enzyme Assay IC50
T1 construct: purchased R&D Systems; host or cells: CHO cells
T1 sequence (P21589 27-549): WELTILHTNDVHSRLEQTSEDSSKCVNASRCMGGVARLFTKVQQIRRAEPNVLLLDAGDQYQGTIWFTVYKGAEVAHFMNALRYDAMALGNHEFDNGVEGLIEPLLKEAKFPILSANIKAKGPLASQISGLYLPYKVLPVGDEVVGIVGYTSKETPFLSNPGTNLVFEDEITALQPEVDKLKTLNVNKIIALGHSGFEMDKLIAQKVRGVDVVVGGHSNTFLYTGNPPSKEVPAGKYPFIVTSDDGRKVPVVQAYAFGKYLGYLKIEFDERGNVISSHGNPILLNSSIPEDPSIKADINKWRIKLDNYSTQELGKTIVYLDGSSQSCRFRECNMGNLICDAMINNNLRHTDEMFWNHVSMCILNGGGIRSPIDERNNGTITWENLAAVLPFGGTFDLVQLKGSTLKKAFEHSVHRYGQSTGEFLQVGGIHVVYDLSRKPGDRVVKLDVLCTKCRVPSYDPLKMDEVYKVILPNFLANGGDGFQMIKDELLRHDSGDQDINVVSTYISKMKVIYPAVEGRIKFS
Method in brief: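 Compounds tested as 15-point, 3-fold dilution series (300 μM to 0.0002 μM) in DMSO. Kinetic absorbance at 360 nm read every minute for 10–20 min, initial velocity taken from the linear portion.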

[1] = target: T2, CD73 on U138 human neuroglioma cells (Homo sapiens, UniProt P21589); assay: CD73 Cell-Based Assay (inorganic phosphate from AMP, malachite green); conditions: AMP substrate, 2 hours at 37° C., read-out: CD73 Cell-Based assay IC50
T2 construct: U138 cells were obtained from ATCC and cultured in DMEM with 10% FBS; host or cells: U138 human neuroglioma cells
T2 sequence (P21589 27-549): T1 sequence (P21589 27-549)
Method in brief: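 U138 cells, seeded the day before at 2500 per well, were washed and given AMP substrate (200 μM in the added mixture, before dilution into the buffer) together with compound. After 2 h at 37 °C in 5% CO2, inorganic phosphate in the supernatant was measured with malachite green.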

SMILES: N#Cc1c(Cl)nc2c(ncn2[C@@H]2O[C@H](CS(=O)(=O)CP(=O)(O)O)[C@@H](O)[C@H]2O)c1NC1CCC(F)(F)CC1 [Compound 126]
IC50 (Human CD73): < 10 nM
IC50 [1]: < 10 nM

SMILES: N#Cc1c(Cl)nc2c(ccn2[C@@H]2O[C@H](CS(=O)(=O)CP(=O)(O)O)[C@@H](O)[C@H]2O)c1N[C@H]1C[C@H](F)C1 [Compound 76, (((((2S,3S,4R,5R)-5-(6-chloro-5-cyano-4-(((1r,3R)-3-fluorocyclobutyl)amino)-1H-pyrrolo[2,3-b]pyridin-1-yl)-3,4-dihydroxytetrahydrofuran-2-yl)methyl)sulfonyl)methyl)phosphonic acid]
IC50 (Human CD73): < 10 nM
IC50 [1]: < 10 nM

SMILES: N#Cc1c(Cl)nc2c(ccn2[C@@H]2O[C@H](COC(CO)P(=O)(O)O)[C@@H](O)[C@H]2O)c1N1CC2CCCC2C1 (stereo partly drawn) [Compound 51]
IC50 (Human CD73): < 10 nM
IC50 [1]: < 10 nM

SMILES: C[C@H](Nc1c(C#N)c(Cl)nc2c1ccn2[C@@H]1O[C@H](COCP(=O)(O)O)[C@@H](O)[C@H]1O)c1ccc(F)cc1 [Compound 8]
IC50 (Human CD73): < 10 nM
IC50 [1]: < 10 nM

SMILES: N#Cc1c(Cl)nc2c(ccn2[C@@H]2O[C@H](COP(=O)(O)CP(=O)(O)O)[C@@H](O)[C@H]2O)c1NC1CCCC1 [Compound 3, (((((2R,3S,4R,5R)-5-(6-chloro-5-cyano-4-(cyclopentylamino)-1H-pyrrolo[2,3-b]pyridin-1-yl)-3,4-dihydroxytetrahydrofuran-2-yl)methoxy)(hydroxy)phosphoryl)methyl)phosphonic acid]
IC50 (Human CD73): < 10 nM
IC50 [1]: < 10 nM

SMILES: N#Cc1c(Cl)nc2c(ccn2[C@@H]2O[C@H](CS(=O)(=O)CP(=O)(O)O)[C@@H](O)[C@H]2O)c1NC1CC2CC2C1 (stereo partly drawn) [Compound 33]
IC50 (Human CD73): < 10 nM
IC50 [1]: < 10 nM

SMILES: N#Cc1c(Cl)nc2c(ccn2[C@@H]2O[C@H](CS(=O)(=O)CP(=O)(O)O)[C@@H](O)[C@H]2O)c1N1CC2CC2C1 (stereo partly drawn) [Compound 22]
IC50 (Human CD73): < 10 nM
IC50 [1]: < 10 nM

SMILES: N#Cc1nc2c(ccn2[C@@H]2O[C@H](CS(=O)(=O)CP(=O)(O)O)[C@@H](O)[C@H]2O)c(NC2CC3(CC3)C2)c1Cl [Compound 221]
IC50 (Human CD73): < 10 nM
IC50 [1]: < 10 nM

SMILES: N#Cc1c(Cl)nc2c(cnn2[C@@H]2O[C@H](COP(=O)(O)CP(=O)(O)O)[C@@H](O)[C@H]2O)c1N[C@H]1C[C@@H](F)C1 [Compound 321]
IC50 (Human CD73): < 10 nM
IC50 [1]: < 10 nM

SMILES: N#Cc1nc2c(ccn2[C@@H]2O[C@H](COCP(=O)(O)O)[C@@H](O)[C@H]2O)c(N2CCC(F)(F)C2)c1Cl [Compound 102]
IC50 (Human CD73): < 10 nM
IC50 [1]: < 10 nM

SMILES: N#Cc1c(Cl)nc2c(ccn2[C@@H]2O[C@H](COCP(=O)(O)O)[C@@H](O)[C@H]2O)c1NC1CCC1 [Compound 9]
IC50 (Human CD73): < 10 nM
IC50 [1]: < 10 nM

SMILES: C[C@@H](Nc1c(C#N)c(Cl)nc2c1cnn2[C@@H]1O[C@H](CS(=O)(=O)CP(=O)(O)O)[C@@H](O)[C@H]1O)c1cccc(C#N)c1 [Compound 193]
IC50 (Human CD73): < 10 nM
IC50 [1]: < 10 nM

SMILES: N#Cc1c(Cl)nc2c(ccn2[C@@H]2O[C@H](CO[C@H](CO)P(=O)(O)O)[C@@H](O)[C@H]2O)c1N1CC2CCCC2C1 (stereo partly drawn) [Compound 50, ((1S)-1-(((2R,3S,4R,5R)-5-(6-chloro-5-cyano-4-(hexahydrocyclopenta[c]pyrrol-2 (1H)-yl)-1H-pyrrolo[2,3-b]pyridin-1-yl)-3,4-dihydroxytetrahydrofuran-2-yl)methoxy)-2-hydroxyethyl)phosphonic acid]
IC50 (Human CD73): < 10 nM
IC50 [1]: < 10 nM

SMILES: C[C@H](Nc1c(C#N)c(Cl)nc2c1cnn2[C@@H]1O[C@H](COP(=O)(O)CP(=O)(O)O)[C@@H](O)[C@H]1O)c1ccc(F)cc1 [Compound 247]
IC50 (Human CD73): < 10 nM
IC50 [1]: < 10 nM

SMILES: C[C@@H](Nc1c(C#N)c(Cl)nc2c1ccn2[C@@H]1O[C@H](COP(=O)(O)CP(=O)(O)O)[C@@H](O)[C@H]1O)c1ccc(F)cc1 [Compound 34]
IC50 (Human CD73): < 10 nM
IC50 [1]: < 10 nM

SMILES: C[C@@H](Nc1c(C#N)c(Cl)nc2c1ncn2[C@@H]1O[C@H](COP(=O)(O)CP(=O)(O)O)[C@@H](O)[C@@H]1F)c1ccc(F)cc1 [Compound 250]
IC50 (Human CD73): < 10 nM
IC50 [1]: < 10 nM

SMILES: C[C@H](Nc1c(C#N)c(Cl)nc2c1cnn2[C@@H]1O[C@H](CS(=O)(=O)CP(=O)(O)O)[C@@H](O)[C@H]1O)c1ccccc1F [Compound 199]
IC50 (Human CD73): < 10 nM
IC50 [1]: < 10 nM

SMILES: N#Cc1c(Cl)nc2c(ccn2[C@@H]2O[C@H](CS(=O)(=O)CP(=O)(O)O)[C@@H](O)[C@@H]2F)c1NC1CC(F)(F)C1 [Compound 169]
IC50 (Human CD73): < 10 nM
IC50 [1]: < 10 nM

SMILES: N#Cc1c(Cl)nc2c(cnn2[C@@H]2O[C@H](COCP(=O)(O)O)[C@@H](O)[C@H]2O)c1N1CC[C@@H](F)C1 [Compound 90]
IC50 (Human CD73): < 10 nM
IC50 [1]: < 10 nM

SMILES: N#Cc1c(Cl)nc2c(ccn2[C@@H]2O[C@H](COCP(=O)(O)O)[C@@H](O)[C@H]2O)c1N1CC2CC2C1 (stereo partly drawn) [Compound 12]
IC50 (Human CD73): < 10 nM
IC50 [1]: < 10 nM

Other lines, results leading:

IC50 (Human CD73): < 10 nM
IC50 [1]: < 10 nM
SMILES: C[C@H](Nc1c(C#N)c(Cl)nc2c1ccn2[C@@H]1O[C@H](CS(=O)(=O)CP(=O)(O)O)[C@@H](O)[C@H]1O)c1ccc(F)cc1 [Compound 18, (((((2S,3S,4R,5R)-5-(6-chloro-5-cyano-4-(((S)-1-(4-fluorophenyl)ethyl)amino)-1H-pyrrolo[2,3-b]pyridin-1-yl)-3,4-dihydroxytetrahydrofuran-2-yl)methyl)sulfonyl)methyl)phosphonic acid]

IC50 (Human CD73): < 10 nM
IC50 [1]: < 10 nM
SMILES: N#Cc1c(Cl)nc2c(ncn2[C@@H]2O[C@H](CS(=O)(=O)CP(=O)(O)O)[C@@H](O)[C@H]2O)c1NC1CC(F)(F)C1 [Compound 113, (((((2S,3S,4R,5R)-5-(5-chloro-6-cyano-7-((3,3-difluorocyclobutyl)amino)-3H-imidazo[4,5-b]pyridin-3-yl)-3,4-dihydroxytetrahydrofuran-2-yl)methyl)sulfonyl)methyl)phosphonic acid]

IC50 (Human CD73): < 10 nM
IC50 [1]: < 10 nM
SMILES: N#Cc1nc2c(ccn2[C@@H]2O[C@H](COP(=O)(O)CP(=O)(O)O)[C@@H](O)[C@H]2O)c(NC2CC3(CC3)C2)c1Cl [Compound 206]

IC50 (Human CD73): < 10 nM
IC50 [1]: < 10 nM
SMILES: N#Cc1c(Cl)nc2c(ccn2[C@@H]2O[C@H](COCP(=O)(O)O)[C@@H](O)[C@H]2O)c1NC1CC2(CC2)C1 [Compound 157]

IC50 (Human CD73): < 10 nM
IC50 [1]: < 10 nM
SMILES: N#Cc1c(Cl)nc2c(ccn2[C@@H]2O[C@H](COP(=O)(O)CP(=O)(O)O)[C@@H](O)[C@H]2O)c1NC1CC2CC2C1 (stereo partly drawn) [Compound 28]

IC50 (Human CD73): < 10 nM
IC50 [1]: < 10 nM
SMILES: N#Cc1c(Cl)nc2c(ccn2[C@@H]2O[C@H](COP(=O)(O)CP(=O)(O)O)[C@@H](O)[C@H]2O)c1NC1CCC1 [Compound 36]

IC50 (Human CD73): < 10 nM
IC50 [1]: < 10 nM
SMILES: N#Cc1nc2c(ccn2[C@@H]2O[C@H](COCP(=O)(O)O)[C@@H](O)[C@H]2O)c(NC2CCCC2)c1C#N [Compound 104]

IC50 (Human CD73): < 10 nM
IC50 [1]: < 10 nM
SMILES: N#Cc1c(Cl)nc2c(ccn2[C@@H]2O[C@H](COP(=O)(O)CP(=O)(O)O)[C@@H](O)[C@H]2O)c1N1CCC(F)(F)C1 [Compound 37]

IC50 (Human CD73): < 10 nM
IC50 [1]: < 10 nM
SMILES: N#Cc1c(Cl)nc2c(ccn2[C@@H]2O[C@H](COCP(=O)(O)O)[C@@H](O)[C@H]2O)c1N[C@H]1CCC(F)(F)C1 [Compound 4]

IC50 (Human CD73): < 10 nM
IC50 [1]: < 10 nM
SMILES: C[C@@H](Nc1c(C#N)c(Cl)nc2c1ncn2[C@@H]1O[C@H](COP(=O)(O)CP(=O)(O)O)[C@@H](O)[C@H]1O)c1ccc(F)cn1 [Compound 225]

IC50 (Human CD73): < 10 nM
IC50 [1]: < 10 nM
SMILES: N#Cc1c(Cl)nc2c(ccn2[C@@H]2O[C@H](COP(=O)(O)CP(=O)(O)O)[C@@H](O)[C@H]2O)c1N1CC2CC2C1 (stereo partly drawn) [Compound 29]

IC50 (Human CD73): < 10 nM
IC50 [1]: < 10 nM
SMILES: N#Cc1cnc2c(ccn2[C@@H]2O[C@H](COP(=O)(O)CP(=O)(O)O)[C@@H](O)[C@H]2O)c1NC1CCCC1 [Compound 48]

IC50 (Human CD73): < 10 nM
IC50 [1]: < 10 nM
SMILES: N#Cc1c(Cl)nc2c(cnn2[C@@H]2O[C@H](COCP(=O)(O)O)[C@@H](O)[C@H]2O)c1N1CC2CCCC2C1 (stereo partly drawn) [Compound 61]

IC50 (Human CD73): 10 to 100 nM
IC50 [1]: < 10 nM
SMILES: N#Cc1c(Cl)nc2c(cnn2[C@@H]2O[C@H](CS(=O)(=O)CP(=O)(O)O)[C@@H](O)[C@H]2O)c1N1CCC(F)(F)C1 [Compound 119, (((((2S,3S,4R,5R)-5-(6-chloro-5-cyano-4-(3,3-difluoropyrrolidin-1-yl)-1H-pyrazolo[3,4-b]pyridin-1-yl)-3,4-dihydroxytetrahydrofuran-2-yl)methyl)sulfonyl)methyl)phosphonic acid]

IC50 (Human CD73): < 10 nM
IC50 [1]: < 10 nM
SMILES: C[C@@H](Nc1c(C#N)c(Cl)nc2c1ncn2[C@@H]1O[C@H](COP(=O)(O)CP(=O)(O)O)[C@@H](O)[C@H]1O)c1ccc(C#N)cc1 [Compound 226]

IC50 (Human CD73): < 10 nM
IC50 [1]: < 10 nM
SMILES: C[C@@H](Nc1c(C#N)c(Cl)nc2c1cnn2[C@@H]1O[C@H](COP(=O)(O)CP(=O)(O)O)[C@@H](O)[C@H]1O)c1ccccc1F [Compound 248]
